According to ChEMBL document CHEMBL1201862, “PubChem BioAssay data set” (2004):
The source made the active and inactive calls.

Key:
[1] = system: HEK293; experiment: inhibitors of LMP1-driven NF-kB reporter, dose response, cell-based, HEK293, luciferase, cherry-pick (AID 588343); type: functional; conditions: Homo sapiens
[2] = target: Dual specificity tyrosine-phosphorylation-regulated kinase 1A (Rattus norvegicus, UniProt Q63470); type: biochemical, Homo sapiens
[3] = system: Vero; experiment: Vero cell cytotoxicity, cytotoxicity control for flavivirus capping enzyme inhibitors (AID 588742); type: functional; conditions: Chlorocebus sabaeus
[4] = target: T1, RNA-binding protein pos-1 (Caenorhabditis elegans, UniProt G5EF15); experiment: inhibitors of POS-1/mex-3 RNA binding, dose response, biochemical, fluorescence polarization (AID 1964);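 also: purified POS-1 fused to maltose binding protein made in E. coli; potency of compounds blocking POS-1 binding to fluorescent RNA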
T1 sequence (G5EF15 whole entry): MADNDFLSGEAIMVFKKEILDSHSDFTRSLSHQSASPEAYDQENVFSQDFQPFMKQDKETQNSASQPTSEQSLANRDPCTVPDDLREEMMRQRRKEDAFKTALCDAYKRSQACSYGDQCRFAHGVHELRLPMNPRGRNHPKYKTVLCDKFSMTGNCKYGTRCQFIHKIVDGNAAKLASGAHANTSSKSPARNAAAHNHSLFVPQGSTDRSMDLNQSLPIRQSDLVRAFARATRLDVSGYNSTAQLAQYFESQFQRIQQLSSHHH

[5] = target: T2, Leucine aminopeptidase (Plasmodium falciparum 3D7, UniProt Q8IL11); experiment: P. falciparum M17LAP inhibitors, primary screen, biochemical, fluorogenic H-Leu-NHMec substrate, 1536-well (AID 1619); type: functional
T2 sequence (Q8IL11 whole entry): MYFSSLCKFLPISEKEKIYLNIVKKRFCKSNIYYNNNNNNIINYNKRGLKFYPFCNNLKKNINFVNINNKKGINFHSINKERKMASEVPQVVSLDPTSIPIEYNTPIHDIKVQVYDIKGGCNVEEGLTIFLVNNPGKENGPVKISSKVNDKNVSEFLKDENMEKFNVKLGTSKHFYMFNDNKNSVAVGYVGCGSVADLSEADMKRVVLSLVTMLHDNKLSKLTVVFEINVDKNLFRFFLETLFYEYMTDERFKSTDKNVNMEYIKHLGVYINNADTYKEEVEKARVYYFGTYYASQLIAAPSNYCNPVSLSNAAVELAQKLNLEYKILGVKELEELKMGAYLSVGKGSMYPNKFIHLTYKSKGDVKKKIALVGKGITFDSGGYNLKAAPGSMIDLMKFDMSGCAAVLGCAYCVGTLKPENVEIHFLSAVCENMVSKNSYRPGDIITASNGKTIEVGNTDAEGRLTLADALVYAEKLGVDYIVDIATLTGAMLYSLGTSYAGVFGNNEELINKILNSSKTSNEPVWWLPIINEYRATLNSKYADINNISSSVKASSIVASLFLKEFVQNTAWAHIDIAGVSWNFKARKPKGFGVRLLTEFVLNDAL

[6] = target: T3, Zinc finger protein mex-5 (Caenorhabditis elegans, UniProt Q9XUB2); experiment: MEX-5/TCR-2 RNA interaction inhibitors, dose response, biochemical, C. elegans, fluorescence polarization (AID 1960)
T3 sequence (Q9XUB2 whole entry): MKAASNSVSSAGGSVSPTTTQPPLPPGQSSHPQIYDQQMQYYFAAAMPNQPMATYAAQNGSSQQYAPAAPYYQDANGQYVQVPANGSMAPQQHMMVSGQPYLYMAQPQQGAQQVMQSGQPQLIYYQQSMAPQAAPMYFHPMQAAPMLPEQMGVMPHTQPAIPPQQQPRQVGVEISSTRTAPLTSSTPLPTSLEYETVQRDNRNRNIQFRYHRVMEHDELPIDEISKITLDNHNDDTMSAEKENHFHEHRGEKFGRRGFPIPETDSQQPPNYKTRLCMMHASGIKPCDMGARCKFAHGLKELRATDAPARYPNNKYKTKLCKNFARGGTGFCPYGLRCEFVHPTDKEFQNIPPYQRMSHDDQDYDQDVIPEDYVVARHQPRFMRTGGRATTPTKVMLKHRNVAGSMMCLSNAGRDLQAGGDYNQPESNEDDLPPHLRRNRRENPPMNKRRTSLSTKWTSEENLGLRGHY

| Compound | AC50 [1] | AC50 [2] | other results |
| --- | --- | --- | --- |
| O=C(O)/C=C/c1ccc2ccccc2n1 | 47.7 µM (active) |  |  |
| Cc1nc(COc2ccccc2Cl)sc1-c1ccnc(N)n1 |  | 0.235 µM (active) |  |
| COc1cc(/C=C2\SC(=O)NC2=O)ccc1Oc1ccc([N+](=O)[O-])cc1[N+](=O)[O-] |  | 7.72 µM (active) | CC50 [3]: > 40 µM (active) |
| CCn1c2ccccc2c2cc(/C=N/n3c(C)nnc3C)ccc21 | 34.2 µM (active) |  |  |
| COc1ccc(Nc2ncnc3nc[nH]c23)cc1OC |  | 12 µM (active) | EC50 [4]: > 300 µM (not active); IC50 [5]: 48.5 µM (active); EC50 [6]: 23.9 µM (active) |
